Experimental data published in paper PMC7508948, “Identification and validation of novel and more effective choline kinase inhibitors against Streptococcus pneumoniae” (Scientific Reports, 2020).
Where two headings read alike, the source gives them in different places.

Columns and labels:
S. pneumoniae [1] = assay: Percent O.D. changes of cultures exposed to multiples of MIC (bacteriostatic/bacteriolytic); format: cell-based, Streptococcus pneumoniae; conditions: cultures grown to O.D. 0.500, concentrations as multiples of MIC
Method: (§1) Figure 3 Effect of drugs on the autolytic process. (A) Percent changes in O.D. were measured in cultures of S. pneumoniae exposed to various concentrations of drugs expressed as multiples of MIC. Percent changes were calculated by comparing initial and final O.D. values. (B) O.D. changes in cells treated with vancomycin (VAN) in the presence and absence of HC-3 (HC3), MN58b (MN), and RSM-932A (RSM). (C) Detergent induced lysis of cells grown to saturation in the presence of 0.5 MIC MN58b and RSM-932A. (D) Phosphate induced lysis of cells grown to saturation in the presence of 0.5 MIC MN58b and RSM-932A.

S. pneumoniae [2] = assay: Detergent and phosphate induced lysis of cells grown with 0.5 MIC inhibitor; format: cell-based, Streptococcus pneumoniae; conditions: cells grown in presence of 0.5 MIC
Method: as §1
Given the observation that MN58b and RSM-932A were sChoK inhibitors, our expectation was that cells treated with these inhibitors would show a decrease in overall LTA content because a decrease in phosphocholine availability would reduce the overall production of LTA residues and, by extension, LTA molecules. A reduction in LTA content, in turn, should help desensitize cells to autolytic induction. Although autolysin proteins would be released, they would not be able to dock on the cell surface because the autolysin choline binding domains would have fewer choline containing LTA molecules with which to interact. Both LTA reduction and cell […] had previously been observed with HC-3[17].

S. pneumoniae R6 cells = assay: Western blot detection of lipoteichoic acid (LTA); format: cell-based, Streptococcus pneumoniae; conditions: cells grown to saturation with 0.5 MIC
Method: R6 cells were cultured to saturation in either BHI-cat alone or BHI-cat 0.5 MIC of MN58b or RSM-932A. One milliliter (1 mL) of cell samples was centrifuged at 3,000g, sonicated 3 × 2 min on ices. Western blots were performed as described[3] while total protein on the membrane was measured by fluorescence according to Quickstain instructions.
In order to quantify LTA production, western blots were performed on extracts of cells grown to saturation in the presence of 0.5 MIC MN58b or RSM-932A. LTA band patterns clearly differed between treatments. […] It is important to note that each size band in an LTA western blot differs from the lower one by a single LTA residue (Fig. 4A)[19].

sChoK [3] = target: T1, sChoK (Streptococcus pneumoniae, UniProt Q8DPI4); assay: Substrate-inhibitor competition (competitivity) by LDH/PK; format: biochemical
T1 sequence (Q8DPI4 entry or part of it): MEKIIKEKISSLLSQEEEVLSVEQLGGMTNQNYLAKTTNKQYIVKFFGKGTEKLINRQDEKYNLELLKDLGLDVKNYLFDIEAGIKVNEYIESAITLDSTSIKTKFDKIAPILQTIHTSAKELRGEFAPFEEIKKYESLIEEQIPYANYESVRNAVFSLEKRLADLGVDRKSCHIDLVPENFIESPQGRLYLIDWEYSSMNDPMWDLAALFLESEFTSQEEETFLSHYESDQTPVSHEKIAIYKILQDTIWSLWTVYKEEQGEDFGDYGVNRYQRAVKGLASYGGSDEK
Method: The mechanism of action of the inhibitors with respect to each substrate was determined using a previously described method[13],[14]. Briefly, using the IC50 of each inhibitor determined at the Km of choline, the concentration of one substrate was kept constant, and initial velocities were measured while varying the second substrate in the presence and absence of the inhibitor. The percentage of inhibition (%I) was determined by dividing each initial velocity in the presence of the inhibitor with its corresponding initial velocity in the absence of compound. %I was plotted against concentration and fitted using a two-parameter-fit nonlinear regression algorithm of GnuPlot v 4.3 into Eq. (2).2 %I=100×(([I]/Ki+[S][I]/αKsKi/(1+[S]/Ks+[I]/Ki+[S][I]/αKsKi)) where [S] is the concentration of the varied substrate, [I] is the concentration of inhibitor, Ks is the dissociation constant of the substrate (assumed to be equal to the Km), Ki is the dissociation constant of the inhibitor, and α is a numerical constant that measures the effect the substrate has on the binding of the inhibitor and vice versa.
A mechanistic analysis was performed for each inhibitor by performing steady-state enzymatic reactions with sChoK in which one substrate was varied while the other substrate was fixed both in assays with and without inhibitor fixed at a concentration equal to its IC50. sChoK inhibition was calculated as a percentage (%I) calculated by dividing the initial velocity at each substrate concentration with inhibitor by counterpart initial velocities in the absence of inhibitor. %I values were plotted against substrate concentration. The resulting data was fitting to an Eq. (2) and Ki and α values calculated.

sChoK [4] = target: T1, sChoK; assay: IC50 by LDH/PK with purified recombinant sChoK; format: biochemical
Method: Purified sChoK was used in these assays. Steady-state enzymatic assays were monitored with the pyruvate kinase/lactate dehydrogenase (PK/LDH) reaction. The steady-state rate of ADP formation was calculated using an extinction coefficient of 6,200 M^−1 cm^−1 to determine linear reductions in NADH concentrations that were observed by absorbance at 340 nm. Measurements were carried out at 25 °C in a UV-Star 96-well plate (Greiner) placed in a Synergy HT microplate reader (Biotek). Each well contained 200 µL of a solution containing 22 nM sChoK enzyme, 100 mM Tris pH 8, 10 mM MgCl2, 150 mM NaCl, 150 mM KCl, […], 0.66 mM phosphoenolpyruvate, 20 units of LDH, and 10 units of PK, choline. ATP. […] The kcat was calculated by dividing the Vmax by the enzyme concentration.
Using the conditions described above, the concentration of choline was set to the Km and increasing amounts of inhibitor were tested. Percent inhibition was determined. The IC50 was determined as the concentration of inhibitor required to reach 50% inhibition.

S. pneumoniae R6 strain [5] = assay: Minimum inhibitory concentration (MIC) and minimum lethal concentration (MLC) in culture; format: cell-based, Streptococcus pneumoniae; conditions: for MLC: S. pneumoniae R6, 99.9% of cells killed by CFU counts; for MIC: Streptococcus pneumoniae, R6STRAIN, S. pneumoniae R6, BHI-CAT, O.D.610 of 0 at end of culture
Method: Seven μL of a glycerol stock of the S. pneumoniae R6 strain was used to inoculate 7 mL of Brain Heart Infusion broth (BHI, Accumedia, Sydney, Australia) supplemented with 5 units/mL catalase (BHI-CAT). This starter culture was incubated at 37 °C in a water bath until an optical density at 610 nm (OD610) […]. Forty μL of this starter culture was used to inoculate 40 mL of BHI-CAT media with or without varying concentrations of inhibitor.
MIC was determined as the concentration inhibitor at which an O.D.610 of 0 was measured at the end of culture time. MLC was defined as the concentration at which 99.9% of cells were killed at the end of culturing time as determined by CFU counts using Meuller–Hinton plates.

S. pneumoniae [6] = assay: Interaction with vancomycin-provoked cell lysis; format: cell-based, Streptococcus pneumoniae; conditions: O.D. changes with vancomycin in presence of inhibitor
Method: as §1
Autolysis is a process of cell lysis and death that is mediated by LTAs via choline binding autolysins[19] such as LytA. […] In light of the non-specificity observed with HC-3 (being able to interfere with both ChoKs and the autolytic process), it seemed logical to check the specificity of MN58b and RSM-932A for sChoK inhibition. The interaction of MN58b, RSM-932A, and HC-3 with bacteriolytic antibiotic vancomycin was determined (Fig. 3B). […] The non-specificity of HC-3 may help to explain its weakness against sChoK.

sChoK [7] = target: T1, sChoK; assay: IC50 by colorimetric method with BL21 (DE3) extracts expressing recombinant sChoK; format: biochemical
Method: (§2) When using cell extracts such as BL21 (DE3) extracts containing sChoK or S. pneumoniae extracts as the enzyme source, a colorimetric method was used to quantify Cho consumption and PCho production as described previously.
The IC50s of each drug against sChoK were measured using two methods: the indirect ldh/pk method that relied on recombinant sChoK and which indirectly measured consumption of ATP[14] and a previously reported colorimetric method that relied on BL21 (DE3) extracts expressing recombinant sChoK, which directly measured the consumption of choline and the production of phosphocholine. Inhibitors were similarly effective in a complex cell extract and in a simplified system relying on a purified enzyme. […] RSM-932A was stronger that MN58b by 1–2 orders of magnitude.

sChoK [8] = target: T1, sChoK; assay: Colorimetric choline kinase assay with S. pneumoniae extracts; format: biochemical; conditions: choline consumption
Text: as §2
In light of the inconsistent results between sChoK inhibition by MN58b and RSM-932A which are both known choline kinase inhibitors, we repeated the colorimetric experiments using S. pneumoniae extracts as the source of sChoK, The goal of the experiment was to determine whether or not differences in sChoK inhibition could be detected in a more native environment than that provided by extracts of E. coli overexpressing sChoK or purified sChoK. […] This agonism was confirmed by mass spectrometry (data not shown) and was also found to be ATP dependent, thereby supporting the inference that RSM-932A was still affecting sChoK activity, although in the opposite direction.

sChoK [9] = target: T1, sChoK; parameters: method as in doi:10.30721/fsab2018.v1.i2.40; conditions: previously reported; read-out: IC50 against sChoK; cited from earlier work
S. pneumoniae R6 strain [10] = system: S. pneumoniae R6 strain; parameters: method as in PMID 28946671; conditions: previously reported; cited from earlier work

Row | SMILES | Bacteriostatic or bacteriolytic action (S. pneumoniae [1]) | Sensitivity of cells to induced autolysis (S. pneumoniae [2]) | LTA size pattern (S. pneumoniae R6 cells) | Total LTA production (S. pneumoniae R6 cells) | Kminh/Kmfree (sChoK [3]; (A) inhibitor vs ATP) | Mechanism of Inhibition (sChoK [3]; (A) inhibitor vs ATP) | Vmaxinh/Vmaxfree (sChoK [3]; (A) inhibitor vs ATP) | α (sChoK [3]; (A) inhibitor vs ATP) | Mechanism of Inhibition (sChoK [3]; (B) inhibitor vs choline) | Vmaxinh/Vmaxfree (sChoK [3]; (B) inhibitor vs choline) | Ki (sChoK [3]; (A) inhibitor vs ATP) [µM] | Ki (sChoK [3]; (B) inhibitor vs choline) [µM] | IC50 (sChoK [4]) [µM] | MLC (S. pneumoniae R6 strain [5]) [µM] | MIC (S. pneumoniae R6 strain [5]) [µM] | Effect on cell lysis provoked by vancomycin (S. pneumoniae [6]) | IC50 (sChoK [7]) [µM] | Effect on choline kinase activity in S. pneumoniae extracts (sChoK [8]) | also measured
1 | CN(c1ccc(Cl)cc1)c1cc[n+](Cc2ccc(-c3ccc(C[n+]4ccc(N(C)c5ccc(Cl)cc5)c5ccccc54)cc3)cc2)c2ccccc12.[Br-].[Br-] [RSM-932A, 1,1′-([1,1′-biphenyl]-4,4′-diylbis(methylene))bis(4-((4-chlorophenyl)(methyl)amino)quinolin-1-ium) bromide] | bacteriostatic up to a concentration of 50 × MIC after which they become bacteriolytic | equally sensitive to autolysis as untreated controls | larger size polymers were favored | overall production remained unchanged | 0.92 | Noncompetitive | 0.61 | 1.1 ± 0.17 | Mixed | 0.76 | 35.8 ± 3.2 | 10.6 ± 0.9 | 22 | 1.6 | 0.4 | minimal to no effect | 0.5 | somewhat inhibitory at lower concentrations, it functioned as an agonist of choline kinase activity at higher concentrations | α (sChoK [3]; (B) inhibitor vs choline): 8.1 ± 1.8
2 | CN(C)c1cc[n+](Cc2ccc(CCCCc3ccc(C[n+]4ccc(N(C)C)cc4)cc3)cc2)cc1 [MN58b, 1,4-[4–4′-Bis-{[4-(dimethylamine)pyridinium-1-yl]methyl}diphenyl]butane dibromide] | bacteriostatic up to a concentration of 50 × MIC after which they become bacteriolytic | primed the cells to be autolyzed | marked increase in the smaller sizes of LTA | marked increase in total LTA production | 3.48 | Mixed | 0.76 | 6.0 ± 2.2 | Mixed | 0.69 | 182 ± 28.1 | 124 ± 19.2 | 645 | 20 | 10 | minimal to no effect | 225 | continued to function as an inhibitor of choline kinase activity | Kminh/Kmfree (sChoK [3]; (B) inhibitor vs choline): 2.3
3 | C[N+]1(C)CCOC(O)(c2ccc(-c3ccc(C4(O)C[N+](C)(C)CCO4)cc3)cc2)C1 (centres unmarked) [HC-3, Hemicholinium-3] | – | – | – | – | – | – | – | – | – | – | – | – | – | – | – | prevented cell lysis provoked by vancomycin | – | – | IC50 (sChoK [9]): 2700 µM; MIC (S. pneumoniae R6 strain [10]): 5,400 µM
